From the supplement of paper PMC10307832

Legend:
Test in all cases: relative viability (nuclei count vs DMSO), 5 days (fraction); higher = more cells survive
Linsitinib = compound: C[C@]1(O)C[C@@H](c2nc(-c3ccc4ccc(-c5ccccc5)nc4c3)c3c(N)nccn32)C1 [Linsitinib]
Procedure, shortened: (§1)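 Only plates meeting two conditions passed: control CV below 25% and at least one doubling. Lung cancer cell lines, kept overnight at 37 °C in 1536-well plates, were pinned with five library-drug doses (not always all listed) √10 apart on vehicle-anchored plates and grown 5 days without medium change. A one-step fix, permeabilisation and Hoechst stain preceded 4× imaging and MetaXpress nuclear counting. Viability equals treated-well nuclei divided by vehicle-well nuclei, as the median over plates.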

Ispinesib = compound: Cc1ccc(C(=O)N(CCCN)[C@@H](c2nc3cc(Cl)ccc3c(=O)n2Cc2ccccc2)C(C)C)cc1 [Ispinesib]
Procedure, shortened: as §1

Linsitinib + Phenformin = compound: C[C@]1(O)C[C@@H](c2nc(-c3ccc4ccc(-c5ccccc5)nc4c3)c3c(N)nccn32)C1 [Linsitinib] + N=C(N)NC(=N)NCCc1ccccc1 [Phenformin] (partner 250 µM)
Procedure, shortened: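 For relative viability, nuclei counts in treated wells were divided by those in vehicle wells. Lung cancer cell lines had been pin-tool dosed in 1536-well plates the day after seeding and cultured for 5 days, then fixed and stained in one step (final 0.05% Triton X-100, 1% formaldehyde, 1 ug/ml Hoechst) and imaged at 4×. Doses were one drug alone or a fixed anchor-drug dose plus five library-drug doses (not always all listed) in √10 steps, and values are duplicate-plate medians.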

Cell Line | relative viability (Linsitinib; 0.01 µM) | relative viability (Linsitinib; 0.03162 µM) | relative viability (Linsitinib; 0.1 µM) | relative viability (Linsitinib; 0.3162 µM) | relative viability (Linsitinib; 1 µM) | relative viability (Linsitinib; 1 µM, anchor plate) | relative viability (Ispinesib; 0.001 µM) | relative viability (Ispinesib; 0.003162 µM) | relative viability (Ispinesib; 0.01 µM) | relative viability (Ispinesib; 0.03162 µM) | relative viability (Ispinesib; 0.1 µM) | relative viability (Linsitinib + Phenformin; first compound 0.01 µM) | relative viability (Linsitinib + Phenformin; first compound 0.03162 µM) | relative viability (Linsitinib + Phenformin; first compound 0.1 µM) | relative viability (Linsitinib + Phenformin; first compound 0.3162 µM) | relative viability (Linsitinib + Phenformin; first compound 1 µM)
NCI-H661 | 0.926 | 1.09 | 1.01 | 0.853 | 1.04 | 0.63 | 0.968 | 0.983 | 0.993 | 0.742 | 0.289 | 0.291 | 0.221 | 0.268 | 0.293 | 0.255
CAL-12T | 1.01 | 0.917 | 0.951 | 0.752 | 0.879 | 0.839 | 1.05 | 1.13 | 1.1 | 0.664 | 0.18 | 0.573 | 0.573 | 0.619 | 0.528 | 0.558
HARA | 1.07 | 0.837 | 0.967 | 0.697 | 0.807 | 0.948 | 1.04 | 1.16 | 1.06 | 0.872 | 0.169 | 0.427 | 0.469 | 0.435 | – | 0.4
NCI-H596 | 1.04 | 0.942 | 0.998 | 0.933 | 0.886 | 1.06 | 0.993 | 0.933 | 1.03 | 0.999 | 0.444 | 0.721 | 0.638 | 0.678 | 0.774 | 0.833
LU99A | 0.915 | 0.968 | 0.899 | 0.483 | 0.738 | 0.555 | 0.976 | 1.01 | 1.03 | 0.303 | 0.269 | 0.919 | 0.848 | 0.781 | 0.475 | 0.555
LC-2-ad | 0.941 | 0.896 | 0.967 | 0.735 | 0.756 | 0.86 | 1.04 | 1.1 | 1.07 | 0.536 | 0.175 | 0.606 | 0.572 | 0.558 | 0.332 | 0.353
NCI-H1650 | 0.917 | 0.894 | 0.926 | 0.477 | 0.665 | – | 1.07 | 1.02 | 0.912 | 0.261 | 0.196 | 0.477 | 0.406 | 0.489 | 0.272 | 0.254
NCI-H1915 | 1.02 | 1.04 | 1.01 | 0.828 | 0.684 | 1.07 | 0.971 | 1.09 | 1.02 | 0.451 | 0.209 | 0.371 | 0.389 | 0.247 | 0.339 | 0.373
ABC-1 | 0.88 | 0.789 | 0.993 | 0.617 | 0.533 | 0.859 | 1.01 | 1.01 | 0.979 | 0.314 | 0.367 | 0.241 | 0.209 | 0.238 | 0.237 | 0.233
HCC-44 | 0.964 | 0.967 | 0.96 | 0.668 | 0.659 | 0.702 | 0.974 | 1.07 | 1.04 | 0.883 | 0.186 | 0.181 | 0.232 | 0.174 | 0.143 | 0.136
HCC-78 | 0.794 | 1.03 | 0.816 | 0.868 | 0.699 | 0.538 | 0.943 | 1.04 | 1.08 | 0.533 | 0.791 | 0.551 | 0.717 | 0.565 | 0.701 | 0.621
LXF-289 | 1.04 | 0.974 | 1.04 | 0.768 | 0.977 | 0.976 | 0.98 | 1.02 | 1.13 | 0.773 | 0.178 | 0.5 | 0.448 | 0.523 | – | 0.471
201T | 0.988 | 0.989 | 1.01 | 0.967 | 0.911 | 1.03 | 0.978 | 1.05 | 1.03 | 0.786 | 0.367 | 0.405 | 0.475 | 0.434 | 0.449 | 0.338
NCI-H1734 | 1.06 | 1.04 | 0.88 | 0.674 | 0.721 | 0.862 | 0.971 | 1.01 | 1.09 | 0.612 | 0.262 | 0.449 | 0.392 | 0.367 | 0.363 | 0.315
NCI-H1623 | 0.889 | 0.955 | 0.889 | – | 0.815 | – | 1.07 | 1.03 | 1.05 | 1.02 | 0.722 | 0.628 | 0.618 | 0.581 | – | 0.519
NCI-H2126 | 1.01 | 0.971 | 1 | 0.818 | 0.71 | 0.715 | 0.978 | 1.08 | 1.06 | 0.992 | 0.564 | 0.531 | 0.512 | 0.484 | 0.338 | 0.319
LOU-NH91 | 0.873 | 0.943 | 0.991 | 1 | 0.801 | 0.942 | 0.962 | 1.09 | 1.05 | 0.646 | 0.287 | 0.739 | 0.714 | 0.722 | 0.651 | 0.632
NCI-H1792 | 0.932 | 0.897 | 0.712 | 0.455 | 0.33 | 0.571 | 1.18 | 1.31 | 0.995 | 0.492 | 0.329 | 0.453 | 0.419 | 0.29 | 0.166 | 0.073
NCI-H1651 | 0.969 | 1 | 0.942 | 0.826 | 0.939 | 1.01 | 1.06 | 1.05 | 1.06 | 0.927 | 0.549 | 0.324 | 0.344 | 0.304 | 0.272 | 0.311
A549 | 0.929 | 0.978 | 0.963 | 0.729 | 0.615 | 0.601 | 1.1 | 0.983 | 1.31 | 0.568 | 0.109 | 0.2 | 0.264 | 0.173 | 0.0926 | 0.151
